The results in this text go back to patent US11014926B2, “Pyrrolo-, pyrazolo-, imidazo-pyrimidine and pyridine compounds that inhibit MNK1 and MNK2” (EFFECTOR THERAPEUTICS, INC., priority 2015, dated 2021).

Structures are written as SMILES. Counter-ions that a name gives are not always drawn. Like-named read-outs stand apart in the source and are kept apart here.

The target of one experiment is recombinant MNK2 (Homo sapiens (Human), UniProt Q9HBH9). The experiment in a line: MNK Biochemical Enzymatic Assay (ADP-Glo kinase assay), MNK2. The procedure: Compounds are screened for MNK inhibition using the ADP-Glo kinase assay kit (Promega, catalogue No. V9101). All kinase reactions are performed in Reaction Buffer E (15 mM HEPES pH7.4, 20 mM NaCl, 1 mM EGTA, 10 mM MgCl2, 0.1 mg/ml BGG, and 0.02% Tween-20). […] Final DMSO concentration in each reaction is 1%.
Kinase reactions are carried out in 96-well half-area white flat-bottom polystyrene plates in a final volume of 25 μl. MNK1/2 enzymes are pre-incubated with compound and peptide substrate for 5 minutes prior to the addition of ATP. After the addition of ATP, kinase reactions are incubated at room temperature for 40 minutes. Reactions are subsequently stopped by the addition of 25 μl of ADP-Glo Reagent and incubating for an additional 40 minutes. The final luminescent signal used for kinase activity readout is produced by the addition of 45 μl of Kinase Detection Reagent (ADP-Glo kit, Promega) and incubating for 40 minutes. The luminescent signal is detected using a Victor 2 multilabel counter (Perkin Elmer) and the concentration of compound necessary to achieve inhibition of enzyme activity by 50% (IC50) is calculated using signals from an 8-point compound dilution series.

The test system of a further experiment is Phosphorylated eIF4E. The experiment in a line: peIF4E Signaling Cellular Assay (CisBio peIF4E HTRF). The format is cell-based. Particulars: cells incubated with compound for 2 hrs at 37° C. The procedure: Phosphorylated eIF4E is assayed using the CisBio peIF4E HTRF® assay kit (CisBio, catalogue No. 64EF4PEG). Cells are plated in 96-well tissue-culture treated plate in appropriate growth medium (90 μL). Compounds (10×) are diluted using 3-fold serial dilutions in cell culture medium and added to cells. Plates are incubated for 2 hrs at 37° C. The cell supernatant is carefully removed either by aspirating supernatant or by flicking the plate. Immediately 50 μL of supplemented lysis buffer (IX) is added and incubated for at least 30 minutes at room temperature under shaking. After homogenization by pipetting up and down, 16 μL of cell lysate is transferred from the 96-well cell-culture plate to a 384-well small volume white plate, 4 μL of premixed antibody solutions (vol/vol) is prepared in the detection buffer and added. The plate is covered with a plate sealer and incubated overnight at room temperature. The fluorescence emissions at two different wavelengths are read (665 nm and 620 nm) on a Wallac Victor2. Emission ratios are converted into percent inhibitions and imported into GraphPad Prism software. […] IC50 values are determined using a nonlinear regression model available in GraphPad Prism 5.
To this end, IC50 values of less than 0.05 μM are labeled as “+++”, from 0.05 to 1.0 μM are labeled as “++”, greater than 1.0 to 100 μM are labeled as “+”, and NA means “not available”.

The mark [1] stands for this setting: 3 nM recombinant MNK2, 10 μM ATP, read-out: IC50 Mnk2.

Chain of recombinant MNK2 (Q9HBH9 whole entry): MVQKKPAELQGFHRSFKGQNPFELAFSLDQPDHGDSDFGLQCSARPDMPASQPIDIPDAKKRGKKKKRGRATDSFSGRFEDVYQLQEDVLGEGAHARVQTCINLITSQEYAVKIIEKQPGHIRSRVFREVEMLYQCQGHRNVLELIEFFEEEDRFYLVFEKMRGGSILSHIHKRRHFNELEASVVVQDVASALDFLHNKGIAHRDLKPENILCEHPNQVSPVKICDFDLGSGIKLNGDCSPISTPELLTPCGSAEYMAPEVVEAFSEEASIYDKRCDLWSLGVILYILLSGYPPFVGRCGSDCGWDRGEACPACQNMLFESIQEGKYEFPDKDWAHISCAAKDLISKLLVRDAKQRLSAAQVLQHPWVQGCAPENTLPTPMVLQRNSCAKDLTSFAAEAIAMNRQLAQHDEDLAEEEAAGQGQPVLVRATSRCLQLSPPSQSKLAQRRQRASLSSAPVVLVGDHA

As for `CC1NC(=O)c2ccc(-n3ccc4cncnc43)cc21` (stereo not drawn) [Cpd. No. 2, 3-methyl-5-(7H-pyrrolo[2,3-d]pyrimidin-7-yl)isoindolin-1-one], the IC50 at recombinant MNK2 fell in the range of 100 to 10000 nM.
As for `CC1NC(=O)c2ccc(N3CCc4cncnc43)cc21` (stereo not drawn) [Cpd. No. 3, 3-methyl-5-(5H-pyrrolo[2,3-d]pyrimidin-7(6H)-yl)isoindolin-1-one], the IC50 on recombinant MNK2 was 100 to 10000 nM; with Phosphorylated eIF4E it was 1000 to 100000 nM.
Consider `O=C1NCc2cc(-n3ncc4cnccc43)ccc21` [Cpd. No. 4, 5-(1H-pyrazolo[4,3-c]pyridin-1-yl)isoindolin-1-one], for which, on recombinant MNK2, the IC50 fell in the range of 100 to 10000 nM.
In the case of `O=C1NCc2nc(-n3ccc4cnccc43)ccc21` [Cpd. No. 5, 2-(1H-pyrrolo[3,2-c]pyridin-1-yl)-6,7-dihydro-5H-pyrrolo[3,4-b]pyridin-5-one], the IC50 at recombinant MNK2 is 100 to 10000 nM.
As for `c1cc2cc(-n3ccc4cncnc43)ccc2cn1` [Cpd. No. 6, 6-(7H-pyrrolo[2,3-d]pyrimidin-7-yl)isoquinoline], the IC50 on recombinant MNK2 is 100 to 10000 nM; in the experiment with Phosphorylated eIF4E, 1000 to 100000 nM.
Regarding `Cc1ncnc2c1ccn2-c1ccc2c(c1)CNC2=O` [Cpd. No. 7, 5-(4-methyl-7H-pyrrolo[2,3-d]pyrimidin-7-yl) isoindolin-1-one], the 50% inhibitory concentration (IC50) on recombinant MNK2 lay within 100 to 10000 nM.
For `O=C1NCc2cc(-n3ccc4cnccc43)ncc21` [Cpd. No. 11, 6-(1H-pyrrolo[3,2-c]pyridin-1-yl)-1H-pyrrolo[3,4-c]pyridin-3(2H)-one], the IC50 on recombinant MNK2 fell in the range of 100 to 10000 nM; in the experiment on Phosphorylated eIF4E, 1000 to 100000 nM.
Turning to `Nc1ncnc2c1ccn2-c1ccc2c(c1)CNC2=O` [Cpd. No. 12, 5-(4-amino-7H-pyrrolo [2,3-d]pyrimidin-7-yl) isoindolin-1-one], on recombinant MNK2, the 50% inhibitory concentration (IC50) was 100 to 10000 nM.
On the same count and under the same terms, with `c1ncc2ccn(-c3ccc4c(c3)CSC4)c2n1` [Cpd. No. 13, 7-(1,3-dihydrobenzo[c]thiophen-5-yl)-7H-pyrrolo[2,3-d]pyrimidine] the figure was 100 to 10000 nM; with `O=C1NCc2nc(-n3ccc4cnccc43)ncc21` [Cpd. No. 14, 2-(1H-pyrrolo[3,2-c]pyridin-1-yl)-6,7-dihydro-5H-pyrrolo[3,4-d]pyrimidin-5-one], 100 to 10000 nM.
Same read-out and setting: with `O=C1NCc2cc(-n3cnc4cncnc43)ccc21` [Cpd. No. 16, 5-(9H-purin-9-yl) isoindolin-1-one] the figure was 100 to 10000 nM; with `O=C1NCc2cc(-n3cc(-c4ccncc4)c4cncnc43)ccc21` [Cpd. No. 19, 5-(5-(pyridin-4-yl)-7H-pyrrolo[2,3-d]pyrimidin-7-yl)isoindolin-1-one], 100 to 10000 nM.
Still for that read-out and setting: for `COC(=O)NCC1NC(=O)c2ccc(-n3ccc4cncnc43)cc21` (stereo not drawn) [Cpd. No. 20, methyl ((3-oxo-6-(7H-pyrrolo[2,3-d]pyrimidin-7-yl)isoindolin-1-yl)methyl)carbamate] the value was 100 to 10000 nM.
Regarding `NCC1NC(=O)c2ccc(-n3ccc4cncnc43)cc21` (stereo not drawn) [Cpd. No. 21, 3-(aminomethyl)-5-(7H-pyrrolo[2,3-d]pyrimidin-7-yl)isoindolin-1-one hydrochloride], on recombinant MNK2, the IC50 lay in the range of 100 to 10000 nM.
Same read-out and setting: with `O=C1NCc2cc(-n3ccc4cncnc43)cc(F)c21` [Cpd. No. 23, 7-fluoro-5-(7H-pyrrolo [2,3-d]pyrimidin-7-yl) isoindolin-1-one] the figure was 100 to 10000 nM.
On the same count and under the same terms, for `O=C1NCc2cc(-n3cc(-c4ccccc4Cl)c4cncnc43)ccc21` [Cpd. No. 24, 5-(5-(2-chlorophenyl)-7H-pyrrolo [2,3-d]pyrimidin-7-yl) isoindolin-1-one] the value was 100 to 10000 nM; for `O=C1NCc2cc(-n3cc(-c4cscn4)c4cncnc43)ccc21` [Cpd. No. 25, 5-(5-(thiazol-4-yl)-7H-pyrrolo[2,3-d]pyrimidin-7-yl)isoindolin-1-one], 100 to 10000 nM.
On to `N#Cc1ccccc1-c1cn(-c2ccc3c(c2)CNC3=O)c2ncncc12` [Cpd. No. 26, 2-(7-(1-oxoisoindolin-5-yl)-7H-pyrrolo[2,3-d]pyrimidin-5-yl)benzonitrile], for which the IC50 on recombinant MNK2 lay within 100 to 10000 nM.
On to `O=C1NC2(CCCC2)c2cc(-n3ccc4cncnc43)cc(Cl)c21` [Cpd. No. 27, 4′-chloro-6′-(7H-pyrrolo[2,3-d]pyrimidin-7-yl)spiro[cyclopentane-1,1′-isoindolin]-3′-one], for which the values for the IC50 at recombinant MNK2 (setting [1]) and in the experiment with Phosphorylated eIF4E were less than 10 nM and 50 to 1000 nM, respectively.
Take `Nc1ncnc2c1ccn2-c1cc(Cl)c2c(c1)C1(CCCCC1)NC2=O` [Cpd. No. 28, 6′-(4-amino-7H-pyrrolo[2,3-d]pyrimidin-7-yl)-4′-chlorospiro[cyclohexane-1,1′-isoindolin]-3′-one]: the IC50 on recombinant MNK2 (setting [1]) is less than 10 nM; in the experiment on Phosphorylated eIF4E it was less than 50 nM.
With `O=C1NC2(CCCCC2)c2cc(-n3ccc4cncnc43)cc(Cl)c21` [Cpd. No. 29, 4′-chloro-6′-(7H-pyrrolo[2,3-d]pyrimidin-7-yl)spiro[cyclohexane-1,1′-isoindolin]-3′-one], the IC50 is 10 to 100 nM at recombinant MNK2 and less than 50 nM in the experiment on Phosphorylated eIF4E.
Turning to `Nc1ncnc2c1ccn2-c1cc(Cl)c2c(c1)C1(CCCC1)NC2=O` [Cpd. No. 30, 6′-(4-amino-7H-pyrrolo[2,3-d]pyrimidin-7-yl)-4′-chlorospiro[cyclopentane-1,1′-isoindolin]-3′-one], the IC50 on recombinant MNK2 (setting [1]) is less than 10 nM; with Phosphorylated eIF4E, less than 50 nM.
In the case of `Cc1cc(-n2ccc3c(N)ncnc32)cc2c1C(=O)NC21CCN(C)CC1` [Cpd. No. 31, 6-(4-amino-7H-pyrrolo [2,3-d]pyrimidin-7-yl)-1′,4-dimethylspiro[isoindoline-1,4′-piperidin]-3-one], the IC50 with Phosphorylated eIF4E was in the range of 50 to 1000 nM.
With `O=C1NCc2nc(-n3ccc4cncnc43)ccc21` [Cpd. No. 32, 2-(7H-pyrrolo[2,3-d]pyrimidin-7-yl)-6,7-dihydro-5H-pyrrolo[3,4-b]pyridin-5-one], the IC50 in the experiment with Phosphorylated eIF4E was 50 to 1000 nM.
For `Cc1cc(-n2ccc3c(N)ncnc32)cc2c1C(=O)NC21CCN(CC(F)F)CC1` [Cpd. No. 33, 6-(4-amino-7H-pyrrolo[2,3-d]pyrimidin-7-yl)-1′-(2,2-difluoroethyl)-4-methylspiro[isoindoline-1,4′-piperidin]-3-one], the IC50 in the experiment with Phosphorylated eIF4E is 50 to 1000 nM.
Take `Cc1cc(-n2ccc3c(N)ncnc32)nc2c1C(=O)NC21CCCCC1` [Cpd. No. 34, 2′-(4-amino-7H-pyrrolo[2,3-d]pyrimidin-7-yl)-4′-methylspiro[cyclohexane-1,7′-pyrrolo[3,4-b]pyridin]-5′(6′H)-one]: the half-maximal inhibitory concentration (IC50) in the experiment with Phosphorylated eIF4E is less than 50 nM.
